How the values were obtained:
[1] = Radiolabeled in vivo ADME study in rats (with metabolite profiling); parameters: species or system Sprague Dawley rats
From the text: Formulated material was used in the single dose in vivo ADME characterization studies in Sprague Dawley rats and Swiss-Webster mice with 14C-labeled 3,4,3-L1(1,2-HOPO).
Pharmacokinetic parameters and disposition/biodistribution of 3,4,3-L1(1,2-HOPO) were characterized in vivo (with the aid of two 14C labels on the spermine backbone of the parent product) in two non-GLP studies using Swiss-Webster mice and Sprague Dawley rats. The study designs for these two studies are shown in TABLE 5.1 and TABLE 5.2, respectively. Groups of six mice (3 male, 3 female) were given a single dose of [14C]-3,4,3-L1(1,2-HOPO) via iv, ip, or po routes, respectively. An additional group of six mice (3 male, 3 female) were administered the 14C-labeled API with permeability enhancer (10% sodium oleate) by oral gavage (po). Similarly, groups of six rats (3 male, 3 female) were administered a single iv dose of the 14C-labeled API or a single po dose of the 14C-labeled API with 10% sodium oleate. In each of these studies, samples were collected at scheduled time points up to 24 hr post-dose and analyzed for 14C content using liquid scintillation counting. Blood, liver, kidney, feces and urine were collected and analyzed from the mice. Blood, brain, liver, kidney, lungs, spleen, skeletal muscle tissues, gastrointestinal (GI) tract samples, carcasses, feces, and urine were collected and analyzed from the rats.
The principal excretion routes of radioactivity from [14C]-3,4,3-L1(1,2-HOPO) were both the feces and urine after an iv dose based on high levels of radioactivity in both feces and urine as well as significant radioactivity in the excretory tissues, kidney, liver and GI tract. Fecal elimination by 24 hr post-dose accounted for approximately 62% and 16% of the iv administered dose in mice and rats, respectively. Urinary excretion accounted for approximately 12-23% of the iv administered dose in these rodents with renal excretion of 14C beginning as early as 5 min after iv injection in mice. In contrast, following oral administration, excretion was primarily by the fecal route accounting for approximately 89% and 41% of the orally administered dose in mice and rats, respectively, by 24 h post-dose. Urinary excretion accounted for <1% of the orally administered dose and low radioactivity levels were detected in systemic circulation and in tissues except for the GI tract. […] Based on the colonic transit time in rats of 15.5 hr, 11 the radioactivity found in the feces in the first 24 hr after po administration is most likely unabsorbed compound. […] Metabolite profiling of [14C]-3,4,3-L1(1,2-HOPO) was performed using an HPLC method on selected urine, feces, kidney, liver, and lung samples from the Sprague Dawley rat. Only samples containing the highest total radioactive levels were selected for analysis. A total of 11 peaks were detected, of which 6 were from uncharacterized interactions between the test article and matrix components because they were also seen in spiked blank matrix controls. These 6 peaks are not metabolites and are considered alternate forms of the parent compound (e.g. complexes of the test article with metallic ions). The 5 other radioactive species (peaks P1-P4 and P10) are considered potential metabolites. Feces-specific metabolite peaks P2, P3, and P10 represented a combined 10.5-11.4% and 0.5-4.2% of the administered dose after po or iv administration, respectively, in rats. Peak P10 was the most abundant peak in all samples analyzed. It represented up to 10% of the administered dose in feces after po administration while the other two feces-specific peaks represented <1% of the administered dose after po administration. Peak P10 was also the predominant, and sometimes the only, peak in feces samples after iv administration. […]

CYP1A2 = target: T1, CYP1A2 (Homo sapiens, UniProt P05177); assay: CYP inhibition; format: in vitro ADME
T1 sequence (P05177 1-516): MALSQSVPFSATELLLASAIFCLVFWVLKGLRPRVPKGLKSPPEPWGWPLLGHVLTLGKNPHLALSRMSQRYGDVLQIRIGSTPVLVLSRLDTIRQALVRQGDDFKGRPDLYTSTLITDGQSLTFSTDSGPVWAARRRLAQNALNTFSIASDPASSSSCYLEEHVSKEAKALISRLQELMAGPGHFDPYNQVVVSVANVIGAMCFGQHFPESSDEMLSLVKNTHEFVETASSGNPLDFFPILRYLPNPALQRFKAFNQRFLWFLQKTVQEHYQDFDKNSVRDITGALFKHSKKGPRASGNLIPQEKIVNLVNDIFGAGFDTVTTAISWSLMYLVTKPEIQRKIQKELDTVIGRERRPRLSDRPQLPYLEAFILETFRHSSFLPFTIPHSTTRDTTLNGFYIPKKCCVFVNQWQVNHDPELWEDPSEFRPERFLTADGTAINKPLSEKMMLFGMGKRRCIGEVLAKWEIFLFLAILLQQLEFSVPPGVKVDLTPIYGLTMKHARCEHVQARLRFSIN

CYP2C19 = CYP2C19 (Homo sapiens, UniProt P33261); assay: CYP inhibition; format: in vitro ADME
Sequence of CYP2C19 (P33261 whole entry): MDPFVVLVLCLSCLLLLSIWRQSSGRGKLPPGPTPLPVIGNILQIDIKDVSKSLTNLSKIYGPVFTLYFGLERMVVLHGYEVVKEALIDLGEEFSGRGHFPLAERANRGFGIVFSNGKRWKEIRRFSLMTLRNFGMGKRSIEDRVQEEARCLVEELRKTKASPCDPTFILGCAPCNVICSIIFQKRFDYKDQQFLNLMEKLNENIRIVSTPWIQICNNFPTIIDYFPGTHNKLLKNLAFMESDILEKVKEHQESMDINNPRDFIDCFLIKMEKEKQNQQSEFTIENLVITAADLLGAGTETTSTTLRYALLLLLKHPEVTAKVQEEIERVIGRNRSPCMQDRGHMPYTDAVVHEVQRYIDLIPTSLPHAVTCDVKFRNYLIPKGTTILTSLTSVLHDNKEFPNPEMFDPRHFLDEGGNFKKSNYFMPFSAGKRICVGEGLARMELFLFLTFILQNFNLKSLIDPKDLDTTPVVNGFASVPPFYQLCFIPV

[2] = Stability in gastric fluid; format: in vitro ADME
[3] = Single oral dose GLP safety (toxicology) study in beagle dogs; format: in vivo
Method: The clinical formulation was tested in a single dose GLP toxicology and cardiovascular safety pharmacology study in beagle dogs.
Based on this study, the MTD in dogs after a single oral administration is considered to be greater than 150 mg/kg.

[4] = Day 15, the one high-dose female with renal findings

O=C(NCCCN(CCCCN(CCCNC(=O)c1cccc(=O)n1O)C(=O)c1cccc(=O)n1O)C(=O)c1cccc(=O)n1O)c1cccc(=O)n1O [3,4,3-L1(1,2-HOPO)]
oral bioavailability (F) of radioactive compound ([1]; female rats): 1.1% | oral bioavailability (F) of radioactive compound ([1]; male rats): 0.4% | mean t½ ([1]; oral administration, rats): ~60 min | Tmax ([1]; oral dose, rodents (rats)): ~42 min | inhibition of CYP1A2 activity (CYP1A2): did not inhibit | inhibition of CYP2C19 activity (CYP2C19): did not inhibit | stability in gastric fluid [2]: degraded slightly | time of slight to moderate emesis post-dose ([3]; 3,4,3-L1(1,2-HOPO) treatment groups): < 2 h | changes in body weight, food consumption, ophthalmology, cardiovascular assessments, clinical pathology, urinalysis, gross necropsy observations, or organ weights ([3]; 37.5, 75, or 150 mg/kg): no meaningful changes | increase in BUN relative to pre-test [3, 4]: 1.8 fold | increase in CR relative to pre-test [3, 4]: 1.3 fold | serum iron, unsaturated iron binding capacity, total iron binding capacity, magnesium, and ferritin ([3]; Days 2 or 15, treated groups compared with controls): none of these parameters were meaningfully altered | Post-dose emesis ([3]; high dose group): 3 dogs out of 12 dogs per group | Extreme diarrhea, incidence ([3]; high-dose (150 mg/kg) males, Day 1): 33% | Slight diarrhea, incidence ([3]; high-dose group (150 mg/kg) females, Day 1): 33% | Slight diarrhea, incidence ([3]; high-dose group (150 mg/kg) males, Day 1): 17% | Renal findings (tubular casts and dilation, interstitial hemorrhage, hemosiderin pigmentation), incidence ([3]; high-dose group (150 mg/kg), Day 15 recovery sacrifice): 1 of 3 | Post-dose emesis ([3]; low dose group): 1 dogs out of 12 dogs per group | Diarrhea ([3]; low-dose group (37.5 mg/kg)): absent | Post-dose emesis ([3]; mid dose group): 2 dogs out of 12 dogs per group | Slight diarrhea, incidence ([3]; mid-dose group (75 mg/kg) females, Day 1): 67% | MTD ([3]; single oral administration, dogs): greater than 150 mg/kg

From patent US11684614B2, “Formulations of hydroxypyridonate actinide/lanthanide decorporation agents” (priority 2017, dated 2023)
